# Source: article doi:10.1101/212043v1 (biorxiv, 2017)
# Tests used:
# hsHDAC11 [1] = target: T1, hsHDAC11 (Homo sapiens, UniProt Q96DB2); experiment: HPLC deacylation assay, Abz fluorescence; assay type: biochemical; conditions: […] trifluoroacetylated peptide substrate, […] enzyme, […]°C; activator
# T1 sequence (Q96DB2 1-347): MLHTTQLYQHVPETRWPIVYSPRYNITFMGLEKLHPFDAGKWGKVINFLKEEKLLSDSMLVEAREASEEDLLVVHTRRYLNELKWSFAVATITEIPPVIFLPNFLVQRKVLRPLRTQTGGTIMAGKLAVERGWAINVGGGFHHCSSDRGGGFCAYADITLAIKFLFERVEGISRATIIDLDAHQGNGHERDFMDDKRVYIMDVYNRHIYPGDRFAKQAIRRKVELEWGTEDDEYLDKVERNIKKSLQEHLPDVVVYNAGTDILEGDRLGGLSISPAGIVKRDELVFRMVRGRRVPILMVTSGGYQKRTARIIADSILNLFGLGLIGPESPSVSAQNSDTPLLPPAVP
# hsHDAC11 [2] = target: T1, hsHDAC11; experiment: HPLC deacylation assay, Abz fluorescence; assay type: biochemical; conditions: read-out: % inhibition at 100 μM
SMILES,fold stimulation at 100 μM (hsHDAC11 [1]) [fold],inhibition at 100 µM (hsHDAC11 [2]) [%]
CCCCCCCCCCCCCC(=O)SCCNC(=O)CCNC(=O)[C@H](O)C(C)(C)COP(=O)(O)OP(=O)(O)OC[C@H]1O[C@@H](n2cnc3c(N)ncnc32)[C@H](O)[C@@H]1OP(=O)(O)O [myristoyl-CoA],2.5,–
CCCCCCCCCCCCCCCC(=O)SCCNC(=O)CCNC(=O)[C@H](O)C(C)(C)COP(=O)(O)OP(=O)(O)OC[C@H]1O[C@@H](n2cnc3c(N)ncnc32)[C@H](O)[C@@H]1OP(=O)(O)O [palmitoyl-CoA],–,> 70
